Data taken from article PMC6099663, “Structure–Activity Relationship of the Tyrosinase Inhibitors Kuwanon G, Mulberrofuran G, and Albanol B from Morus Species: A Kinetics and Molecular Docking Study” (Molecules : A Journal of Synthetic Chemistry and Natural …, 2018).
Read-outs that look alike come from different tables or passages of the source.

How the values were obtained:
[1] = biological target: T1, mushroom tyrosinase (Agaricus bisporus, UniProt C7FF04); assay: Mushroom tyrosinase inhibitory assay, L-tyrosine oxidation (monophenolase activity); type: biochemical; parameters: purchased Sigma-Aldrich Co. (St. Louis, MO, USA)
Procedure: (§1) Briefly, 10 µL of a specified concentration of each sample solution (1–500 µg/mL) in 10% dimethyl sulfoxide and 20 µL of mushroom tyrosinase (1000 Units/mL) in a 50 mM phosphate buffer (pH 6.5) were added to 170 µL of an assay mixture in a 96-well microplate. […] The reaction mixtures were incubated at 25 °C for 15 s. The absorbance of the mixture at 490 nm was measured using a microplate reader. […] One unit (U) of enzymatic activity referred to the amount of an enzyme capable of converting 1 µM of the L-tyrosine/L-DOPA reaction mixture within 1 min at 280 nm under the specific conditions (25 °C, optimum conditions).

[2] = biological target: T1, mushroom tyrosinase; assay: Mushroom tyrosinase inhibitory assay, L-DOPA oxidation (diphenolase activity); type: biochemical; parameters: purchased Sigma-Aldrich Co. (St. Louis, MO, USA); conditions: L-DOPA substrate (diphenolase), 25 °C, pH 6.5, mean ± SEM of triplicate
Procedure: as §1

[3] = test system: tyrosinase; conditions: cited from earlier work
[4] = biological target: T1, mushroom tyrosinase; assay: Enzyme kinetic analysis with tyrosinase (Lineweaver-Burk and Dixon plots, L-tyrosine substrate); type: biochemical; conditions: for Inhibition Mode: Lineweaver–Burk plot, L-tyrosine substrate (monophenolase)
Procedure: Kinetic analysis was employed to verify the inhibitory activity of the active compounds and identify the type of inhibition. KG and MG were potent tyrosinase inhibitors as analyzed by Lineweaver–Burk and Dixon plots (Figure 3 and Figure 4). Different concentrations of the substrate (L-tyrosine, 1.0, 0.5, and 0.25 mM) along with the various concentrations of KG (10, 50, and 100 µM) and MG ([…]) were analyzed. […] The Ki values represent the concentrations required to form an enzyme inhibitor complex, so inhibitors with lower Ki values indicate greater tyrosinase inhibition activity for the development of prophylactic and therapeutic agents.
We observed the sample activity by decreasing the L-tyrosine (1.0, 0.5, and 0.25 mM) substrate concentration to determine the tyrosinase inhibitory mechanism. The reaction mixture consisted of a 20 µL test sample at the following test concentrations: 1.6, 8, and 16 µM for MG; 10, 50, and 100 µM for KG. Tyrosinase inhibition was determined at various concentrations of L-tyrosine substrate (1.0, 0.5, and 0.25 mM) in the absence or presence of the test compound concentrations (1.6, 8, and 16 µM for MG; 10, 50, and 100 µM for KG) using Lineweaver-Burk double reciprocal plots that determine enzyme kinetic parameters including Km and Vmax. The enzymatic procedures consisted of the previously described tyrosinase assay methods. The inhibition constant (Ki) was determined from the interpretation of Dixon plots.

[5] = biological target: mushroom tyrosinase; parameters: method as in ref 12 (Zheng et al.); conditions: L-tyrosine substrate; ref 12 (Zheng et al.); read-out: IC50, L-tyrosine oxidation (monophenolase); cited from earlier work
[6] = biological target: mushroom tyrosinase; parameters: method as in ref 13 (Chaita et al.); conditions: L-DOPA substrate; ref 13 (Chaita et al.); read-out: IC50, mushroom tyrosinase via the L-DOPA pathway; cited from earlier work
[7] = test system: B16F10 cells; parameters: method as in PMID 25819153; conditions: 150 µM; cited from earlier work
[8] = L-tyrosine substrate (monophenolase), 25 °C, pH 6.5, mean ± SEM of triplicate, read-out: IC50 (μM) Value L-Tyrosine
[9] = read-out: IC50 (μM) Value L-DOPA

T1 sequence (C7FF04 2-392): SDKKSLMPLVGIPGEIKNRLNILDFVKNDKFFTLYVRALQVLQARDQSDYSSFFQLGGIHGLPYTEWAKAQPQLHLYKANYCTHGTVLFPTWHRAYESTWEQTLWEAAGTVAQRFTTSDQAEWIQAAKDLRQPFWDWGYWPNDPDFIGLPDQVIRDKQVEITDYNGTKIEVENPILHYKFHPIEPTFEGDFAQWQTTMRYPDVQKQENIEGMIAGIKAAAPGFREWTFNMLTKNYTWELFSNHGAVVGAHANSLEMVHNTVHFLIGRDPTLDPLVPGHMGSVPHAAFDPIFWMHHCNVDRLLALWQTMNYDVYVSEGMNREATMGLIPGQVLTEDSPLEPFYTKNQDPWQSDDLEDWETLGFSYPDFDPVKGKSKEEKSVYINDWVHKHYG

CC1=CCCCC1 [1-Methyl-1-cyclohexene, reference compound] showed an IC50 [1, 8] of over 1000 µM and an IC50 [2, 9] of over 1000 µM.
For Cc1cc2c3c(c1)-c1c(O)cc(-c4cc5ccc(O)cc5o4)cc1OC3(c1ccc(O)cc1O)Oc1cc(O)ccc1-2 (centres unmarked) [Albanol B], the “IC50 (μM) Value L-Tyrosine” value ([1]; L-tyrosine substrate (monophenolase), 25 °C, pH 6.5, mean ± SEM of triplicate) was “inactive”, the IC50 [1, 8] was over 350 µM and the “IC50 (μM) Value L-DOPA” value [2] was “inactive”. For the same molecule, the IC50 [2, 9] was over 350 µM.
In the case of O=C(O)/C=C/c1ccccc1 [Cinnamic acid], the “inhibition type toward tyrosinase” value ([3]; interacted with secondary binding sites when catalytic pocket occupied with tropolone, ref 34 (Hassani et al.)) is listed as “mixed type inhibitor”.
In the case of O=c1cc(CO)occ1O [Kojic acid], the “inhibition type toward tyrosinase” value [3] is listed as “selective competitive inhibitor”.
For CC(C)=CCc1c(-c2ccc(O)cc2O)oc2c(C3C=C(C)CC(c4ccc(O)cc4O)C3C(=O)c3ccc(O)cc3O)c(O)cc(O)c2c1=O (centres unmarked) [Kuwanon G], the Ki [4] is listed as 18.7 µM, the “Inhibition Mode” value [4] is listed as “Competitive” and the IC50 [5] is listed as over 200 µM. For the same molecule, the IC50 [6] was 27.2 µM, the IC50 [1] was 67.6 ± 2.11 µM and the IC50 ([2]; IC50 (μM) Value L-DOPA) was 44 µM.
In the case of CC1=C[C@H]2c3c(O)cc(-c4cc5ccc(O)cc5o4)cc3O[C@@]3(c4ccc(O)cc4O)Oc4cc(O)ccc4[C@H](C1)[C@@H]23 [Mulberrofuran G], the Ki ([4]; Dixon plot, L-tyrosine substrate, read-out: Inhibition Constant (Ki)) is listed as 5.19 µM, the “Inhibition Mode” value [4] is listed as “Competitive” and the IC50 [5] is listed as 17.5 µM. The IC50 [1, 8] was 6.35 ± 0.45 µM and the IC50 [2, 9] was 106 µM.
For C=C1CC/C=C(\C)CC[C@@H]2[C@@H]1CC2(C)C [β-caryophyllene], the intracellular tyrosinase activity [7] is given as “decreased”.
